Assay results from patent US5817324A, “Use of arylpyrroles for the control of resistant insect populations” (American Cyanamid Company, priority 1997, dated 1998).

Tests used:
Type in all cases: in vivo
[1] = tested on: pyrethroid-susceptible lab strain horn flies (Haematobia irritans); test: 24 hour treated filter paper bioassay, pyrethroid-susceptible horn flies (Example 1)
Description: (§1) Evaluation Of The Effect Of Test Compounds vs. Cypermethrin On Susceptible And Resistant Strains Of Horn Flies (Haematobia irritans).
(§2) In this bioassay, highly pyrethroid-resistant wild flies and flies of a pyrethroid-susceptible lab strain are used. All flies are held in plastic petri dishes and exposed to sequential rates of test compound residue on filter paper^1. A 1.25 inch hole is cut in the bottom half of the 100 mL petri dish and covered with fiberglass window screen. The bottom is used as the top in this bioassay, in order that the flies may be blood fed through the screened opening with a muslin pad saturated with citrated cattle blood.
(§3) The experiments are conducted in triplicate to determine 24 hour LC50 data for the test compound and cypermethrin on susceptible and pyrethroid-resistant horn flies. The experiments are conducted on site so that freshly captured pyrethroid-resistant horn flies can be used. On the exemplified site, very high levels of pyrethroid resistance had been selected through several years of pyrethroid cattle ear tag use^2. Wild pyrethroid-resistant horn flies are tested within 1 hour of capture to minimize check mortality. The resistance factor (RF) is determined by the following equation: […]
(§4) The LC50 is the concentration in μlg/cm^2 of test com-pound required to kill 50% of the fly population tested. The LC50 values are determined from the mortality data using standard log probit analysis techniques^3, and are within 95% confidence limits^1. The data obtained is shown in Table I. The references listed below are incorporated herein by reference thereto.

[2] = tested on: pyrethroid-resistant Rowena strain sheep body lice; test: treated cotton square contact bioassay, pyrethroid-resistant sheep body lice, with resistance factor (Example 3); details: 16 hours
Description: (§5) Evaluation Of Test Compound Activity Against Susceptible And Resistant Sheep Body Lice
(§6) In this evaluation, test compounds are dissolved in acetone and diluted in a gradient series. One mL aliquots of the acetone dilutions are pipetted onto 6 cm cotton squares. The treated squares are dried and put into 9 cm petri dishes. Adult lice from the pyrethroid-susceptible Peak Hill strain and the pyrethroid-resitant Rowena strain are collected by suction from sheep, transferred onto each treated square and confined using a stainless steel ring (50 mm diameter×20 mm). After 16 hours, the lice are scored as dead, moribund or alive. In this bioassay, the test compound killed, rather than knocked-down lice. Each treatment is replicated. Standard log probit analysis techniques are used to determine the LC50 and LC99 values from the mortality data, and are within 95% confidence limits. The LC50 values are then used to determine the resistance factor (RF) as shown below.
(§7) RF=Resistant LC50 .div.Susceptible LC50
(§8) The LC50 is the concentration in mg/L of test compound required to kill 50% of the lice population tested. The LC99 is the concentration in mg/L of test compound required to kill 99% of the lice population tested.

[3] = tested on: pyrethroid-resistant wild horn flies (Haematobia irritans); test: 24 hour treated filter paper bioassay, pyrethroid-resistant horn flies, with resistance factor (Example 1)
Description: as §1, §2
(§9) The experiments are conducted in triplicate to determine 24 hour LC50 data for the test compound and cypermethrin on susceptible and pyrethroid-resistant horn flies. The experiments are conducted on site so that freshly captured pyrethroid-resistant horn flies can be used. On the exemplified site, very high levels of pyrethroid resistance had been selected through several years of pyrethroid cattle ear tag use^2. Wild pyrethroid-resistant horn flies are tested within 1 hour of capture to minimize check mortality. The resistance factor (RF) is determined by the following equation:
as §7, §4

[4] = tested on: Susceptible strain of horn flies (Haematobia irritans); test: treated filterpaper-tarsal contact 24 hour bioassay, susceptible horn flies (Example 2); details: Table II
Description: as §2, §3, §4
(§10) Evaluation Of Test Compounds vs. Permethrin On Susceptible And Resistant Strains Of Horn Flies (Haematobia irritans)
(§11) Using essentially the standard treated filterpaper-tarsal contact 24 hour bioassay described in Example 1, the following test compounds and pyrethroid insecticide are evaluated: […]

[5] = tested on: Resistant strain of horn flies (Haematobia irritans); test: treated filterpaper-tarsal contact 24 hour bioassay, resistant horn flies, with resistance factor (Example 2); details: Table II; for Resistant LC50: resistant horn flies
Description: as §2, §9, §7, §4, §10, §11

[6] = tested on: pyrethroid-susceptible Peak Hill strain sheep body lice; test: treated cotton square contact bioassay, pyrethroid-susceptible sheep body lice (Example 3); details: 16 hours
Description: as §5, §6, §8

[7] = Experiment 1, pyrethroid-resistant horn flies
[8] = Experiment 2, pyrethroid-resistant horn flies
[9] = Experiment 3, pyrethroid-resistant horn flies

Compound | Susceptible LC50 ([1]; Experiment 1) [μg/cm^2] | Susceptible LC50 ([1]; Experiment 2) [μg/cm^2] | Susceptible LC50 ([1]; Experiment 3) [μg/cm^2] | Resistant LC50 ([2]; Rowena strain) [µg/mL] | EC99 ([2]; Rowena strain, read-out: Resistant LC99) [µg/mL] | RF (resistance factor; Resistant LC50 ÷ Susceptible LC50) ([2]; sheep body lice) | RF (resistance factor; Resistant LC50 ÷ Susceptible LC50) ([3]; Experiment 1) | Resistant LC50 [3, 7] [μg/cm^2] | RF (resistance factor; Resistant LC50 ÷ Susceptible LC50) ([3]; Experiment 2) | Resistant LC50 [3, 8] [μg/cm^2] | RF (resistance factor; Resistant LC50 ÷ Susceptible LC50) ([3]; Experiment 3) | Resistant LC50 [3, 9] [μg/cm^2] | Susceptible LC50 [4] [μg/cm^2] | RF (resistance factor; Resistant LC50 ÷ Susceptible LC50) [5] | Resistant LC50 [5] [μg/cm^2] | Susceptible LC50 [6] [µg/mL] | EC99 ([6]; read-out: Susceptible LC99) [µg/mL]
CCOCn1c(-c2ccc(Cl)cc2)c(C#N)c(Br)c1C(F)(F)F [Compound A, 4-bromo-2-(p-chlorophenyl)-1-(ethoxymethyl)-5-(trifluoromethyl)pyrrole-3-carbonitrile] | 1.2 | 2.15 | 1.25 | 5.85 | 24.5 | 0.7048 | 0.30 | 0.356 | 0.14 | 0.294 | 0.23 | 0.287 | 1.691 | 0.23 | 0.391 | 8.30 | 52.8
CC1(C)C(C=C(Cl)Cl)C1C(=O)OC(C#N)c1cccc(Oc2ccccc2)c1 (centres unmarked) [Compound B, Cypermethrin, reference compound] | 0.122 | 0.057 | 0.013 |  |  |  | 640 | 79.02 | 1144 | 65.20 | 3636 | 47.27 |  |  |  |  | 
N#Cc1c(-c2ccc(Cl)cc2)[nH]c(C(F)(F)F)c1Br [Compound C, 4-Bromo-2-(p-chlorophenyl)-5-(trifluoromethyl)pyrrole-3-carbonitrile] |  |  |  |  |  |  |  |  |  |  |  |  | 21.237 | 0.088 | 1.877 |  | 
CCOCn1c(-c2ccc(Cl)cc2)c(C#N)c(Cl)c1C(F)(F)F [Compound D, 4-Chloro-2-(p-chlorophenyl)-1-(ethoxymethyl)-5-(trifluoromethyl)pyrrole-3-carbonitrile] |  |  |  |  |  |  |  |  |  |  |  |  | 8.692 | 0.123 | 1.066 |  | 
CC1(C)C(C=C(Cl)Cl)C1C(=O)OCc1cccc(Oc2ccccc2)c1 (centres unmarked) [Compound E, Permethrin, reference compound] |  |  |  |  |  |  |  |  |  |  |  |  | 0.102 | 80.0 | 8.16 |  | 
